Values quoted from earlier work in patent publication US20250255800A1, “DETERGENT COMPOSITIONS FOR WASHING URUSHIOL AND METHODS OF TREATING URUSHIOL INDUCED CONTACT DERMATITIS” (THE WILLIAM M. YARBROUGH FOUNDATION, priority 2020, published 2025).

How the values were obtained:
[1] = system: aquatic organisms; conditions: EPA statement / GHS Hazard Statement H411
[2] = in vitro and in vivo assays

| Substance | toxicity to aquatic life [1] | estrogenic properties [2] |
| --- | --- | --- |
| nonoxynol 9 [nonoxynol-9] | toxic to aquatic life with long lasting effects | – |
| nonylphenol [nonylphenol (NP)] | extremely toxic to aquatic organisms | exhibit estrogenic properties |
